Common to all, as to type: functional
Assay [1] deals with Hep 3B2. The experiment in a line: Induction of apoptosis in human Hep3B cells assessed as necrotic cells at 10 nM measured after 48 hrs in presence of gamabufotalin by annexin V-FITC/Propidium iodide staining based flow cytometric analysis (reference value: 0.3%). In general terms: In flow cytometry, cells or beads pass a laser one at a time.
The subject of assay [2] is Hep 3B2. The experiment in a line: Induction of apoptosis in human Hep3B cells assessed as early apoptotic cells at 10 nM measured after 48 hrs in presence of gamabufotalin by annexin V-FITC/Propidium iodide staining based flow cytometric analysis (reference value: 1.6%).
In assay [3] the test system is Huh-7. The experiment in a line: Induction of apoptosis in human Huh-7 cells assessed as early apoptotic cells at 10 nM measured after 48 hrs in presence of gamabufotalin by annexin V-FITC/Propidium iodide staining based flow cytometric analysis (Rvb =2.2%).
Assay [4] has as its system Hep 3B2. The experiment in a line: Induction of apoptosis in human Hep3B cells assessed as viable cells at 10 nM measured after 48 hrs by annexin V-FITC/Propidium iodide staining based flow cytometric analysis (reference value: 95.6%). The conditions noted are these: read-out: Activity.
The test system of assay [5] is Hep 3B2. The experiment in a line: Induction of apoptosis in human Hep3B cells assessed as viable cells at 10 nM measured after 48 hrs in presence of gamabufotalin by annexin V-FITC/Propidium iodide staining based flow cytometric analysis (reference value: 95.6%). The conditions noted are these: read-out: Activity.
Assay [6] concerns Hep 3B2. The experiment in a line: Induction of apoptosis in human Hep3B cells assessed as necrotic cells at 10 nM measured after 48 hrs by annexin V-FITC/Propidium iodide staining based flow cytometric analysis (reference value: 0.3%).
Assay [7] relates to Huh-7. The experiment in a line: Induction of apoptosis in human Huh-7 cells assessed as viable cells at 10 nM measured after 48 hrs by annexin V-FITC/Propidium iodide staining based flow cytometric analysis (reference value: 91.7%). As to conditions: read-out: Activity.
Assay [8] relates to Hep 3B2. The experiment in a line: Induction of apoptosis in human Hep3B cells assessed as late apoptotic cells at 10 nM measured after 48 hrs in presence of gamabufotalin by annexin V-FITC/Propidium iodide staining based flow cytometric analysis (reference value: 2.4%).
Assay [9] has as its system Huh-7. Put plainly: Induction of apoptosis in human Huh-7 cells assessed as necrotic cells at 10 nM measured after 48 hrs by annexin V-FITC/Propidium iodide staining based flow cytometric analysis (reference value: 0.0%).
For assay [10], the system named is Huh-7. The experiment in a line: Induction of apoptosis in human Huh-7 cells assessed as early apoptotic cells at 10 nM measured after 48 hrs by annexin V-FITC/Propidium iodide staining based flow cytometric analysis (reference value: 2.2%).
The test system of assay [11] is Huh-7. Put plainly: Induction of apoptosis in human Huh-7 cells assessed as viable cells at 10 nM measured after 48 hrs in presence of gamabufotalin by annexin V-FITC/Propidium iodide staining based flow cytometric analysis (reference value: 91.7%). As to conditions: read-out: Activity.
The test system of assay [12] is Huh-7. Put plainly: Induction of apoptosis in human Huh-7 cells assessed as necrotic cells at 10 nM measured after 48 hrs in presence of gamabufotalin by annexin V-FITC/Propidium iodide staining based flow cytometric analysis (reference value: 0.0%).
Assay [13] concerns Hep 3B2. The experiment in a line: Induction of apoptosis in human Hep3B cells assessed as early apoptotic cells at 10 nM measured after 48 hrs by annexin V-FITC/Propidium iodide staining based flow cytometric analysis (reference value: 1.6%).
Assay [14] deals with Huh-7. The experiment in a line: Induction of apoptosis in human Huh-7 cells assessed as late apoptotic cells at 10 nM measured after 48 hrs in presence of gamabufotalin by annexin V-FITC/Propidium iodide staining based flow cytometric analysis (reference value: 6.1%).
Assay [15] relates to Huh-7. The experiment in a line: Induction of apoptosis in human Huh-7 cells assessed as late apoptotic cells at 10 nM measured after 48 hrs by annexin V-FITC/Propidium iodide staining based flow cytometric analysis (reference value: 6.1%).
Assay [16] has as its system Hep 3B2. The experiment in a line: Induction of apoptosis in human Hep3B cells assessed as late apoptotic cells at 10 nM measured after 48 hrs by annexin V-FITC/Propidium iodide staining based flow cytometric analysis (reference value: 2.4%).

Activity and viability data for one molecule are collected here from ChEMBL document CHEMBL5257089, “Gamabufotalin Induces Apoptosis and Cytoprotective Autophagy through the mTOR Signaling Pathway in Hepatocellular Carcinoma” (J Nat Prod, 2023).

Residues, ends and D or L forms follow the SMILES beside them. *: point of attachment. Cbz = O=C(OCc1ccccc1)*; CH2F = FC*

Regarding `CC(C)[C@H](NC(=O)OCc1ccccc1)C(=O)N[C@@H](C)C(=O)N[C@@H](CC(=O)O)C(=O)CF` (Cbz-Val-Ala-Asp-CH2F), the Activity turned out to be 0.3% with Hep 3B2 [1]; 4.4% with Hep 3B2 [2]; 3.3% in the assay with Huh-7 [3]; 0.3% in the assay with Hep 3B2 [6]; 3.5% with Hep 3B2 [8]; 0.1% in the assay on Huh-7 [9]. Also, the Activity in the assay on Huh-7 [10] is listed as 2.7%; in the assay with Huh-7 [12], 0.3%; with Hep 3B2 [13], 2.6%; in the assay with Huh-7 [14], 7.4%; with Huh-7 [15] it was 6.9%; in the assay with Hep 3B2 [16] it was 3.6%. For the same molecule, the viability at 0.01 µM was 93.5% with Hep 3B2 [4], 91.9% in the assay on Hep 3B2 [5], 90.3% in the assay with Huh-7 [7] and 89% in the assay on Huh-7 [11].
